Paper PMC8591627 (ACS infectious diseases, 2021)
“And” between values parts separate entries of the source, which are not always exact repeats. Equal entries are not always repeated.

Key:
[1] = system: JSF-3151–resistant strains; assay: MIC versus JSF-3151-resistant strains compared to the parental strain; type: cell-based, Staphylococcus aureus
MRSA COL strain = assay: Mouse peritonitis-sepsis model; type: in vivo, Staphylococcus aureus; details: single dose 100 mg/kg subcutaneous
S. aureus = details: 8x MIC; ref [13], [35]–[36]; cited from earlier work
MRSA ATCC 43300 = assay: MIC, drug susceptibility assay; type: cell-based, Staphylococcus aureus; details: 18 h; for MRSA ATCC 43300 MIC: 37 °C, visual inspection
MSSA ATCC 25923 = assay: MIC, drug susceptibility assay; type: cell-based, Staphylococcus aureus; details: 18 h, 37 °C, visual inspection
Vero cells = type: cell-based; details: 72 h; for CC50: read-out: Vero cell CC50

CC1(C)S[C@@H]2[C@H](NC(=O)[C@H](N)c3ccccc3)C(=O)N2[C@H]1C(=O)O [Ampicillin]
MIC versus JSF-3151–resistant strains compared to parental strain [1]: same MIC

CN[C@H](CC(C)C)C(=O)N[C@H]1C(=O)N[C@@H](CC(N)=O)C(=O)N[C@H]2C(=O)N[C@H]3C(=O)N[C@H](C(=O)N[C@H](C(=O)O)c4cc(O)cc(O)c4-c4cc3ccc4O)[C@H](O)c3ccc(c(Cl)c3)Oc3cc2cc(c3O[C@@H]2O[C@H](CO)[C@@H](O)[C@H](O)[C@H]2O[C@H]2C[C@](C)(N)[C@H](O)[C@H](C)O2)Oc2ccc(cc2Cl)[C@H]1O [vancomycin]
mice surviving 3 d post-administration (MRSA COL strain): 12/12
MIC versus JSF-3151–resistant strains compared to parental strain [1]: same MIC
resistance frequency (S. aureus): 1 x 10^−9 to 1 x 10^−6

CO[C@H]1/C=C/O[C@@]2(C)Oc3c(C)c(O)c4c(O)c(c(/C=N/N5CCN(C)CC5)c(O)c4c3C2=O)NC(=O)/C(C)=C\C=C\[C@H](C)[C@H](O)[C@@H](C)[C@@H](O)[C@@H](C)[C@H](OC(C)=O)[C@@H]1C [Rifampicin]
MIC versus JSF-3151–resistant strains compared to parental strain [1]: same MIC

CC(=O)N1CCN(c2cc3c(cc2F)c(=O)c(C(=O)N2CCCc4ccccc42)cn3C2CC2)CC1 [JSF-3145]
MRSA ATCC 43300 MIC (MRSA ATCC 43300; listed as Z27692293 (3145)): 12 μg/mL and 25 μM
MSSA ATCC 25923 MIC (MSSA ATCC 25923; listed as Z27692293 (3145)): 12 μg/mL and 25 μM
Vero cell CC50 (Vero cells): > 50 µg/mL
CC50 (Vero cells): > 100 µM

O=C(O)c1cn(C2CC2)c2cc(N3CCNCC3)c(F)cc2c1=O [ciprofloxacin]
resistance frequency (S. aureus): 1 x 10^−9 to 1 x 10^−6

CC[C@H]1OC(=O)[C@H](C)[C@@H](O[C@H]2C[C@@](C)(OC)[C@@H](O)[C@H](C)O2)[C@H](C)[C@@H](O[C@@H]2O[C@H](C)C[C@H](N(C)C)[C@H]2O)[C@](C)(O)C[C@@H](C)C(=O)[C@H](C)[C@@H](O)[C@]1(C)O [erythromycin]
MIC versus JSF-3151–resistant strains compared to parental strain [1]: same MIC

CN(C)c1nnc(-c2ccc(NC(=O)c3ccc([N+](=O)[O-])o3)cc2)o1 [JSF-3157]
MRSA ATCC 43300 MIC (MRSA ATCC 43300; listed as Z1542057255 (3157)): 6.2 μg/mL and 18 μM
MSSA ATCC 25923 MIC (MSSA ATCC 25923; listed as Z1542057255 (3157)): 6.2 μg/mL and 18 μM
Vero cell CC50 (Vero cells): 0.78 µg/mL
CC50 (Vero cells): 2 µM

C[C@H]1c2cccc(O)c2C(=O)C2=C(O)[C@]3(O)C(=O)C(C(N)=O)=C(O)[C@@H](N(C)C)[C@@H]3[C@@H](O)[C@@H]21 [Doxycycline]
MIC versus JSF-3151–resistant strains compared to parental strain [1]: same MIC

O=C(Nc1cccc(N2CCOC2=O)c1)c1ccc([N+](=O)[O-])o1 [JSF-3153]
MRSA ATCC 43300 MIC (MRSA ATCC 43300; listed as Z364195972 (3153)): 3.1 μg/mL and 10 μM
MSSA ATCC 25923 MIC (MSSA ATCC 25923; listed as Z364195972 (3153)): 6.2 μg/mL and 20 μM
Vero cell CC50 (Vero cells): 1.6 µg/mL
CC50 (Vero cells): 5 µM

Nc1ccc(C(=O)Nc2cc(Cl)cc3cccnc23)s1 [JSF-3640, 5-amino-N-(6-chloroquinolin-8-yl)thiophene-2-carboxamide]
MIC (MRSA ATCC 43300; Staphylococcus aureus, ATCC43300|MRSA, read-out: MRSA ATCC 43300 MIC): > 50 µg/mL

CC(=O)NC[C@H]1CN(c2ccc(N3CCOCC3)c(F)c2)C(=O)O1 [linezolid]
resistance frequency (S. aureus): 1 x 10^−9 to 1 x 10^−6
